# Measurements published in US4774248A, “Methods of treating depression and depressive states using 5-phenyl-1,4,5,6-tetrahydropyrimidine derivatives” (priority 1985, dated 1988).
# “Also recorded” adds a separate entry of the source.
# How the values were obtained:
# chicken embryos = details: D. G. UPSHALL, Teratology, 1972; cited from earlier work
# [1] = test system: stereotypies induced by amphetamine; assay: Interaction with amphetamine (rats); assay type: in vivo; details: i.p.; amphetamine 2 mg/kg
# Experimental: (§1) The results of toxicological and neuropsychopharmacological tests which were carried out with the products according to the invention have been summarized below. In these tests, solutions of the said products in distilled water were administered intraperitoneally in a volume of 20 ml/kg to male mice and in a volume of 5 ml/kg to male rats.
# Amphetamine (2 mg/kg) is injected intraperitoneally into groups of 6 rats 30 minutes after the administration of CRL 41 378.
# [2] = test system: hypothermia and ptosis induced by reserpine; assay: Interaction with reserpine; assay type: in vivo; details: mice, i.p.; reserpine 2.5 mg/kg
# Experimental: as §1
# Four hours after the intraperitoneal injection of 2.5 mg/kg of reserpine, groups of 12 mice receive CRL 41 378.
# pregnant rabbits = assay: Teratogenic effects on pregnant rabbits; assay type: in vivo
# mice [3] = assay: Behavioral despair (forced immersion); assay type: in vivo; details: mice which have been forcibly immersed, i.p.
# Experimental: as §1
# Half an hour after they have received CRL 41 378, groups of 6 mice are placed in a beaker filled with water to a height of 6 cm. The total period of immobility between the 2nd and 6th minutes following immersion is noted.
# [4] = test system: hypothermia, trembling and peripheral cholinergic symptoms induced by oxotremorine; assay: Interaction with oxotremorine; assay type: in vivo; details: mice, i.p.; oxotremorine 0.5 mg/kg
# Experimental: as §1
# CRL 41 378 is administered to groups of 6 mice 0.5 h before the intraperitoneal injection of 0.5 mg/kg of oxotremorine.
# [5] = test system: hypothermia, righting behavior and stereotypies induced by apomorphine; assay: Interaction with apomorphine in mice; assay type: in vivo; details: i.p.
# Experimental: as §1
# CRL 41 378 is administered to groups of 6 mice 30 minutes before the subcutaneous injection of 1 or 16 mg/kg of apomorphine.
# mice [6] = assay: Motility reduced by hypoxic aggression (acute hypobaric anoxia); assay type: in vivo; details: i.p.
# Experimental: In these tests, solutions of the said products in distilled water were administered intraperitoneally in a volume of 20 ml/kg to male mice and in a volume of 5 ml/kg to male rats.
# mice [7] = assay: Intergroup aggressiveness; assay type: in vivo; details: mice, i.p.
# Experimental: as §1
# After they have stayed for 3 weeks in the two halves of a cage divided by an opaque partition, groups of 3 mice receive CRL 41 378. Half an hour later, the two groups from the same cage are brought together by removal of the partition and the number of fights which occur in 10 minutes is noted.
# [8] = test system: hypothermia induced by apomorphine; assay: Interaction with apomorphine by gastric administration; assay type: in vivo; details: Mus musculus, male mice, apomorphine 16 mg/kg s.c., read-out: dose as from which the hypothermia induced by apomorphine is opposed
# Experimental: Each test product is administered gastrically to male mice, in a volume of 20 ml/kg, 0.50 h before the subcutaneous injection of 16 mg/kg of apomorphine.
# mice [9] = assay: Asphyxiant anoxia caused by gallamine triiodoethylate; assay type: in vivo; details: i.p., gallamine triiodoethylate 32 mg/kg
# Experimental: as §1
# Groups of 10 mice receive CRL 41 378 30 minutes before the intraperitoneal administration of 32 mg/kg of gallamine triiodoethylate (reference curarizing agent).
# [10] = test system: trembling and head twitches induced by 5-hydroxytryptophan (5-HTP); assay: Interaction with 5-hydroxytryptophan in association with an MAOI (nialamide); assay type: in vivo, male mice
# Experimental: The purpose of the procedure used is to investigate the activity of each product according to the invention as regards the trembling induced by 5-hydroxytryptophan (5-HTP) in association with an MAOI (in this case nialamide).
# Each test product, in solution in distilled water, is administered intraperitoneally in a volume of 20 ml/kg to male mice.
# Groups of 10 mice receive nialamide (20 mg/kg, administered gastrically) at time T-18 h, each test product at time T-0.5 h and then (±)-5-HTP (20 mg/kg, administered intraperitoneally) at time T. Immediately after the injection of the (±)-5-HTP, the mice are individually placed in transparent plastic boxes. The generalized trembling, the partial trembling and the head twitches are noted on a yes/no basis for 2 h.
# male mice = assay: Acute toxicity, intraperitoneal (LD0, LD30, LD60, LD100); assay type: in vivo
# Experimental: as §1
# mice [11] = assay: Electric shock; assay type: in vivo; details: i.p.
# Experimental: as §1
# The test is performed on groups of 10 mice 30 minutes after the administration of CRL 41 378.
# anesthetized dogs [12] = assay: Cardiovascular study in anesthetized dogs; assay type: in vivo; details: intraduodenal
# mice [13] = assay: Overall behavior and reactivities in mice; assay type: in vivo; details: i.p.
# Experimental: as §1
# (§2) Groups of 3 animals are observed before and then 0.25 h, 0.50 h, 1 h, 2 h, 3 h and 24 h after the administration of CRL 41 378. The following observations are made:
# (§3) Groups of 3 animals are observed before and then 0.25 h, 0.50 h, 1 h, 2 h, 3 h and 24 h after the administration of CRL 41 329.
# rats = assay: Overall behavior and reactivities in rats; assay type: in vivo; details: i.p.
# Experimental: as §1, §2, §3
# [14] = test system: central nervous system (CNS); assay: Neuropsychopharmacological profile (conclusions of the tests); assay type: in vivo, mice and rats; details: i.p.
# Experimental: as §1
# [15] = test system: depressions and depressive states; assay: Clinical trials in depression and depressive states; assay type: in vivo, human; details: daily oral administration to adults
# Experimental: The clinical trials which have been undertaken have made it possible to determine that the daily dose to be administered orally to adults, in the treatment of depressions and depressive states, is generally between 3 and 120 mg for the products of the formulae Ia and Ib according to the invention.
# anesthetized dogs [16] = assay: Cardiovascular study in anesthetized dogs; assay type: in vivo
# Experimental: Groups of 2 adult dogs (each weighing 10 to 18 kg), anesthetized with nembutal, receive each test product (i) by intraduodenal administration at successive doses of 0.1 mg/kg, 0.5 mg/kg, 1 mg/kg, 2.5 mg/kg, 5 mg/kb, 10 mg/kg and 20 mg/kg, and then (ii) if appropriate, by intravenous administration at a dose of 10 mg/kg. The effects of 10 μg/kg of isoprenaline and/or 2 μg/kg of norepinephrine after the intraduodenal administration of a cumulative dose of 39.1 mg/kg are also assessed.
# The following are measured: the total arterial blood pressure, the diastolic arterial blood pressure, the heart rate, the blood flows through the femoral and cerebral arteries and saphenous veins, the rectal temperature, the skin temperature and the pressure of the gases (essentially O2) dissolved in the arterial blood.
# [17] = i.p., nialamide + (±)-5-HTP, male mice
smiles,measurement,setting,value
Clc1ccc(C2CCNC=N2)cc1 (stereo not drawn) [compound No. 18],teratogenic effect,chicken embryos,absence of teratogenic effects on chicken embryos
c1ccc(C2=NCCCN2)cc1 [compound No. 2],teratogenic effect,chicken embryos,teratogenic
"Cl.Fc1ccccc1C1CN=CNC1 (stereo not drawn) [CRL 41 329, 5-(2-fluorophenyl)-1,4,5,6-tetrahydropyrimidine hydrochloride]",action on stereotypies induced by amphetamine,[1],potentiates the stereotypies induced by amphetamine
same,action on hypothermia induced by reserpine,[2],"significant antagonism of the hypothermia induced by apomorphine, oxotremorine and reserpine"
same,teratogenic effects,pregnant rabbits,devoid of harmful teratogenic effects on pregnant rabbits
same,period of immobility,mice [3],"no decrease in the period of immobility due to ""despair"""
same,action on hypothermia induced by oxotremorine,[4],"significant antagonism of the hypothermia induced by apomorphine, oxotremorine and reserpine"
same,action on hypothermia induced by apomorphine,[5],"significant antagonism of the hypothermia induced by apomorphine, oxotremorine and reserpine"
same,motor recovery after acute hypobaric hypoxia,mice [6],a decrease in the motor recovery after hypoxic aggression
same,intergroup aggressiveness (number of fights),mice [7],a decrease in the intergroup aggressiveness in mice
same,minimal effective dose,[8],≥ 0.25 mg/kg
same,time taken for convulsions and death / lethal effects of gallamine triiodoethylate,mice [9],aggravation of the lethal effects of electric shock and gallamine triiodoethylate in mice
same,analogy with β-adrenergic stimulants in the 5-HTP procedure,[10]; 5-HTP + MAOI,effects analogous to those of isoprenaline
same,intensity of potentiation of 5-HTP effects,"[10]; higher doses, 5-HTP + MAOI, male mice",the potentiation being very intense at the doses of 8 to 32 mg/kg
same,head twitches,[10]; [17],distinctly potentiate the partial trembling and the head twitches
same,partial trembling,[10]; [17],distinctly potentiate the partial trembling and the head twitches
same,toxic signs in the animals treated,male mice; 64 mg/kg i.p.,"all the animals treated exhibit salivation, sedation and vasodilation of the tail"
same,toxic signs in the animals treated,male mice; 128 mg/kg i.p.,all the animals have asphyxiant convulsions
same,LD0 (maximum non-lethal dose),male mice; intraperitoneal,greater than 64 mg/kg
same,LD100 (minimum dose lethal to all the animals),male mice; intraperitoneal,~128 mg/kg
same,lethal effects of electric shock,mice [11],aggravation of the lethal effects of electric shock and gallamine triiodoethylate in mice
same,blood flows through the femoral and vertebral arteries,anesthetized dogs [12],decreases the blood flows in the femoral and vertebral arteries
same,overall behavior and reactivities,mice [13]; 0.5 mg/kg,moderate mydriasis for 2 h
same,overall behavior and reactivities,"mice [13]; 2 mg/kg, hydrochloride",sedation (2 out of 3 animals) for 0.5 h; also recorded: moderate and brief mydriasis for 0.5 h
same,overall behavior and reactivities,"mice [13]; 8 mg/kg, hydrochloride",sedation (2 out of 3 animals) for 0.5 h; also recorded: weak and brief mydriasis for 0.5 h
same,overall behavior and reactivities,mice [13]; 32 mg/kg,"sedation (3/3) 0.25 h after administration, then (2/3) 0.5 h after administration"
same,overall behavior and reactivities,rats; 0.25 mg/kg,moderate mydriasis for 3 h
same,overall behavior and reactivities,rats; 1 mg/kg,significant mydriasis for 3 h
same,overall behavior and reactivities,"rats; 4 mg/kg, hydrochloride",sedation (3/3) for 2 h; also recorded: a decrease in the reactivity to touch and the muscle tone; also recorded: piloerection (1/3) for 1 h; also recorded: significant mydriasis for at least 3 h (mydriasis still being apparent 24 h after administration)
same,overall behavior and reactivities,"rats; 16 mg/kg, hydrochloride",sedation (3/3) for 3 h; also recorded: a decrease in the reactivity to touch and the muscle tone; also recorded: significant mydriasis for 3 h (the mydriasis still being apparent 24 h after administration)
same,antidepressant effects,[14],antidepressant effects appearing at all the doses used
same,peripheral α-adrenergic stimulant effects,[14],modest effects capable of reflecting peripheral α-adrenergic stimulation
same,sedative effects,[14]; hydrochloride,sedative effects appearing at high doses; also recorded: sedation with hypomotility; also recorded: low-intensity transient hypothermia
same,results in human therapy (depression),[15],excellent results
same,rectal temperature,anesthetized dogs [16],increases the rectal temperature
same,skin temperature,anesthetized dogs [16],increases the rectal temperature and skin temperature
same,arterial blood pressure,anesthetized dogs [16]; intraduodenal,tends to increase the arterial blood pressure
same,heart rate,anesthetized dogs [16]; intraduodenal,decrease the heart rate
same,mydriasis and salivation,anesthetized dogs [16]; intraduodenal,causes mydriasis and substantial salivation
same,respiratory arrhythmia,anesthetized dogs [16]; intraduodenal,causing respiratory arrhythmia
same,effects of isoprenaline,anesthetized dogs [16]; isoprenaline 10 μg/kg,does not cause a distinct modification of the effects of isoprenaline on the diastolic arterial blood pressure and the heart rate
same,hypertension induced by norepinephrine,anesthetized dogs [16]; norepinephrine 2 μg/kg,decreases the hypertension induced by norepinephrine
